Experimental data from the supplement of paper PMC11061612.

Experiments:
[1] = test system: UACC-812 (Breast Carcinoma); test: combination Emax (second highest fraction inhibited in the dose matrix, 72 h); higher = more inhibition; extreme values may be limits of the assay
Summary of the method: (§1)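 After 24 hours at 37°C and 5% CO2 in 1536-well plates, cells in DMEM/F12 or RPMI plus 10% FBS received two-drug dose matrices for 72 hours. Viability came from CellTiter-Glo 2.0 luminescence and was scaled as inhibition, anchored at 0 by vehicle wells and at 1 by blank wells. Combination Emax is taken as the second-highest inhibition in the matrix, and Bliss excess as the observed combination effect less EA + EB − EA·EB, with EA and EB the single-agent effects.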

[2] = test system: huH-1 (Hepatocellular Carcinoma); test: Bliss excess, mean over the matrix (fraction); higher = more synergy;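 further: after 72 h of two-drug dosing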
Summary of the method: as §1

[3] = test system: 5637 (Bladder Carcinoma); test: combination Emax (second highest fraction inhibited in the dose matrix, 72 h); higher = more inhibition; extreme values may be limits of the assay
Summary of the method: as §1

[4] = test system: A101D (Melanoma); test: as above
Summary of the method: as §1

[5] = test system: A253 (Head and Neck Carcinoma); test: as above
Summary of the method: as §1

[6] = test system: AU565 (Breast Carcinoma); test: as above
Summary of the method: as §1

[7] = test system: CESS (Acute Myeloid Leukemia); test: as above
Summary of the method: as §1

[8] = test system: COLO-792 (Melanoma); test: as above
Summary of the method: as §1

[9] = test system: DMS-53 (Small Cell Lung Carcinoma); test: as above
Summary of the method: as §1

[10] = test system: DU-4475 (Breast Carcinoma); test: as above
Summary of the method: as §1

[11] = test system: G-402 (Other Solid Carcinomas); test: as above
Summary of the method: as §1

[12] = test system: GA-10 (Burkitt's Lymphoma); test: as above
Summary of the method: as §1

[13] = test system: HCC1428 (Breast Carcinoma); test: as above
Summary of the method: as §1

[14] = test system: JIMT-1 (Breast Carcinoma); test: as above
Summary of the method: as §1

[15] = test system: Jurkat (T-Lymphoblastic Leukemia); test: as above
Summary of the method: as §1

[16] = test system: LS-411N (Colorectal Carcinoma); test: as above
Summary of the method: as §1

[17] = test system: NCI-H716 (Colorectal Carcinoma); test: as above
Summary of the method: as §1

[18] = test system: OACp4C (Esophageal Adenocarcinoma); test: as above
Summary of the method: as §1

[19] = test system: RH-41 (Rhabdomyosarcoma); test: as above
Summary of the method: as §1

Row | SMILES | combination Emax [1] | Bliss excess [2] | combination Emax [3] | combination Emax [4] | combination Emax [5] | combination Emax [6] | combination Emax [7] | combination Emax [8] | combination Emax [9] | combination Emax [10] | combination Emax [11] | combination Emax [12] | combination Emax [13] | combination Emax [14] | combination Emax [15] | combination Emax [16] | combination Emax [17] | combination Emax [18] | combination Emax [19]
1 | N#Cc1cnc(Nc2cc(NC[C@H]3CNCCO3)c(C(F)(F)F)cn2)cn1 [SRA737] + C=CCn1c(=O)c2cnc(Nc3ccc(N4CCN(C)CC4)cc3)nc2n1-c1cccc(C(C)(C)O)n1 [AZD1775] (first compound max 10 µM, partner max 1 µM) | 0.511 |  |  |  |  |  |  |  |  |  |  |  |  |  |  |  |  |  | 
2 | N#Cc1cnc(Nc2cc(NC[C@H]3CNCCO3)c(C(F)(F)F)cn2)cn1 [SRA737] + CCc1c2c(nc3ccc(O)cc13)-c1cc3c(c(=O)n1C2)COC(=O)[C@]3(O)CC [SN-38] (first compound max 10 µM, 7x7, partner max 0.3 µM) | 0.475 |  |  |  |  |  |  |  |  |  |  |  |  |  |  |  |  |  | 
3 | N#Cc1cnc(Nc2cc(NC[C@H]3CNCCO3)c(C(F)(F)F)cn2)cn1 [SRA737] + Nc1ccn([C@@H]2O[C@H](CO)[C@@H](O)C2(F)F)c(=O)n1 [Gemcitabine] (first compound max 10 µM, 7x7, partner max 0.3 µM) | 0.592 |  |  |  |  |  |  |  |  |  |  |  |  |  |  |  |  |  | 
4 | N#Cc1cnc(Nc2cc(NC[C@H]3CNCCO3)c(C(F)(F)F)cn2)cn1 [SRA737] + O=c1[nH]cc(F)c(=O)[nH]1 [5-Fluorouracil] (first compound max 10 µM, 7x7, partner max 20 µM) | 0.323 |  |  |  |  |  |  |  |  |  |  |  |  |  |  |  |  |  | 
5 | C[C@@H](c1ccc2nccn2c1)n1nnc2ncc(-c3cnn(C)c3)nc21 [Savolitinib] + CC1(C)CCC(CN2CCN(c3ccc(C(=O)NS(=O)(=O)c4ccc(NCC5CCOCC5)c([N+](=O)[O-])c4)c(Oc4cnc5[nH]ccc5c4)c3)CC2)=C(c2ccc(Cl)cc2)C1 [Venetoclax] (first compound max 1 µM, 7x7, partner max 1 µM) | 0.105 | -0.0804 | 0.0801 | 0.2 | 0.092 | 0.168 | 0.204 | 0.27 | 0.395 | 0.146 | 0.131 | 0.101 | 0.125 | 0.164 | 0.188 | 0.0933 | 0.251 | 0.204 | 0.201
6 | C[C@@H](c1ccc2nccn2c1)n1nnc2ncc(-c3cnn(C)c3)nc21 [Savolitinib] + CN(CC[C@H](CSC1=CC=CC=C1)NC2=C(C=C(C=C2)S(=O)(=O)NC(=O)C3=CC=C(C=C3)N4CCC(CC4)[C@H](C5=CC=CC=C5C6=CC=C(C=C6)Cl)O)S(=O)(=O)C(F)(F)F)CCO [AZD4320] (first compound max 1 µM, 7x7, partner max 1 µM) |  | -0.0456 | 0.179 | 0.409 | 0.22 | 0.182 | 0.291 | 0.798 | 0.994 | 0.871 | 0.187 | 0.138 | 0.476 | 0.213 | 0.556 | 0.277 | 0.189 | 0.78 | 0.806
7 | C[C@@H](c1ccc2nccn2c1)n1nnc2ncc(-c3cnn(C)c3)nc21 [Savolitinib] + Cc1c2c(nn1C)CSCc1cc(n(C)n1)CSc1cc(c3ccccc3c1)OCCCc1c(C(=O)O)n(C)c3c-2c(Cl)ccc13 [AZD5991] (first compound max 1 µM, 7x7, partner max 1 µM) | 0.627 | -0.0586 | 0.0543 | 0.386 | 0.38 | 1 | 0.175 | 0.726 | 0.209 | 0.173 | 0.409 | 0.669 | 0.971 | 0.213 | 0.575 | 0.188 | 0.0581 | 0.283 | 0.888
